In patent publication US20030065066A1, “Triazine UV absorbers comprising amino resins” (priority 1998, published 2003):

Experiment: Solubility in xylenes
Assay type: physicochemical
From the text: A major advantage of alkoxymethylated melamine triazine UV absorbers of the present invention is not only their improved solubility, but also their improved compatibility with coatings resins compared to the corresponding triazine precursors. For example 2,4-bis(2,4-dimethylphenyl)-6-[2-hydroxy-4-(2-hydroxyethoxy)phenyl]-1,3-5-triazine is only soluble in xylenes to the extent of about 0.5%. […] Therefore Compound A is much easier to dissolve in high solids coating resin formulations than 2,4-bis(2,4-dimethylphenyl)-6-[2-hydroxy-4-(2-hydroxyethoxy)phenyl]-1,3-5-triazine, and overcomes the problem of cratering and poor weatherability of the final coatings due to undissolved UV absorber particles.

## 2,4-bis(2,4-dimethylphenyl)-6-[2-hydroxy-4-(2-hydroxyethoxy)phenyl]-1,3-5-triazine [Compound a]
  xylenes solubility: about 0.5%
